From patent US12509435B2, “Compounds for selective binding to estrogen receptors alpha/beta relative to GPER/GPR30 and methods of treating disease states and conditions mediated through these receptors” (UNM RAINFOREST INNOVATIONS, priority 2019, dated 2025) come the findings set out here.

What all share (assay type): cell-based
Assay [1] concerns Tamoxifen-resistant MCF-7 cells (TamR) and long-term estrogen-deprived MCF-7 cells (LTED). As to the kind of experiment: Cell viability in cell line models of endocrine resistance after 5 days. To be noted: TamR and LTED MCF-7 cells, normalized to DMSO-treated cells. The text has this: Cells were a gift from Dr. Donald McDonnell (Duke University).
The target of another assay is T1, ERα (Homo sapiens, UniProt P03372).
T1 construct: endogenous in cells; host or cells: MCF-7
T1 sequence (P03372 1-595): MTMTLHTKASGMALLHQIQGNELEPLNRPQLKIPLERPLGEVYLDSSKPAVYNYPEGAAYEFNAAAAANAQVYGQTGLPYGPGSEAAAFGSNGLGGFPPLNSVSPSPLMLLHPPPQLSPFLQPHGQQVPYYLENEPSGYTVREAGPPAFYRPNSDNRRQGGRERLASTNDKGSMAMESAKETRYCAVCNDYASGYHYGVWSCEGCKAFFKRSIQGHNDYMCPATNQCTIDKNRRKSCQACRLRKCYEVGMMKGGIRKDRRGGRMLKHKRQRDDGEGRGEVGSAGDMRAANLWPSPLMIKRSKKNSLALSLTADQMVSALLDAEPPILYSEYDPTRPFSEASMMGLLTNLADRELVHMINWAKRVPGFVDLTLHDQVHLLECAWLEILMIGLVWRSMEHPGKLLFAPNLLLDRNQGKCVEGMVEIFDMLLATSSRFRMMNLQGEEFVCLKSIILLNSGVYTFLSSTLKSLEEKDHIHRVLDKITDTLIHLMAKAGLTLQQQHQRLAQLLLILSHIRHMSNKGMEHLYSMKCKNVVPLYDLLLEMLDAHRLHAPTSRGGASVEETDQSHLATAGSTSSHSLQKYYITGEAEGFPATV
As to the kind of experiment: Degradation of ERα in MCF-7 cells, Western blot. To be noted: indicated concentrations. On the procedure:
MCF-7 were treated with the indicated compounds and ERα protein levels were assessed by Western blot (top panel). Actin served as a loading control (bottom panel). Quantification of the western blot is shown on the right.
Background: Immunoblotting shows a protein as a band on a membrane.

The target in a further assay is T2, ERα-Y537S (Homo sapiens, UniProt P03372, Y537S).
T2 construct: host or cells: HEK293
T2 sequence (P03372 1-595 Y537S): T1 sequence (P03372 1-595) with Y537S
Put plainly: Degradation of HA-ERα-Y537S mutant in transfected HEK293 cells, Western blot. To be noted: HEK293 cells transfected with HA-ERα-Y537S, Western blot relative to actin. The text has this:
HEK293 cells transfected with the HA-ERα-Y537S mutant were stimulated with the indicated compounds and HA-ERα-Y537S protein levels assessed by Western blot (left) and quantitated relative to actin (right).

Changes are numbered by the printed parent chain.

On to `CCCCN(C)C(=O)CCCCCCCCCCCC1=CCC2(CO)COC(c3ccc(O)cc3)C1C2` (stereo not drawn) [AB-82P, N-butyl-12-(1-(hydroxymethyl)-4-(4-hydroxyphenyl)-3-oxabicyclo[3.3.1]non-6-en-6-yl)-N-methyldodecanamide], for which the “effect on cell viability in models of endocrine resistance” value in assay [1] is given as “inhibitory effects”. On ERα, the “degradation of ERα protein levels” value is “Dose-dependent degradation of ERα”. The “degradation of HA-ERα-Y537S protein levels” value on ERα-Y537S is on record as “induced degradation of ERα-Y537S”.
